Values of other authors, collected in patent publication US7767688B2, “Combination of pyrimidylaminobenzamide compounds and imatinib for treating gastrointestinal stromal tumours” (Novartis AG, priority 2005, dated 2010).

Target: PDGFRA V561D juxtamembrane domain mutation (Homo sapiens, UniProt P16234, V561D)
Conditions: V561D compared with D842V kinase domain mutation

Chain of PDGFRA V561D juxtamembrane domain mutation (P16234 24-1089 V561D): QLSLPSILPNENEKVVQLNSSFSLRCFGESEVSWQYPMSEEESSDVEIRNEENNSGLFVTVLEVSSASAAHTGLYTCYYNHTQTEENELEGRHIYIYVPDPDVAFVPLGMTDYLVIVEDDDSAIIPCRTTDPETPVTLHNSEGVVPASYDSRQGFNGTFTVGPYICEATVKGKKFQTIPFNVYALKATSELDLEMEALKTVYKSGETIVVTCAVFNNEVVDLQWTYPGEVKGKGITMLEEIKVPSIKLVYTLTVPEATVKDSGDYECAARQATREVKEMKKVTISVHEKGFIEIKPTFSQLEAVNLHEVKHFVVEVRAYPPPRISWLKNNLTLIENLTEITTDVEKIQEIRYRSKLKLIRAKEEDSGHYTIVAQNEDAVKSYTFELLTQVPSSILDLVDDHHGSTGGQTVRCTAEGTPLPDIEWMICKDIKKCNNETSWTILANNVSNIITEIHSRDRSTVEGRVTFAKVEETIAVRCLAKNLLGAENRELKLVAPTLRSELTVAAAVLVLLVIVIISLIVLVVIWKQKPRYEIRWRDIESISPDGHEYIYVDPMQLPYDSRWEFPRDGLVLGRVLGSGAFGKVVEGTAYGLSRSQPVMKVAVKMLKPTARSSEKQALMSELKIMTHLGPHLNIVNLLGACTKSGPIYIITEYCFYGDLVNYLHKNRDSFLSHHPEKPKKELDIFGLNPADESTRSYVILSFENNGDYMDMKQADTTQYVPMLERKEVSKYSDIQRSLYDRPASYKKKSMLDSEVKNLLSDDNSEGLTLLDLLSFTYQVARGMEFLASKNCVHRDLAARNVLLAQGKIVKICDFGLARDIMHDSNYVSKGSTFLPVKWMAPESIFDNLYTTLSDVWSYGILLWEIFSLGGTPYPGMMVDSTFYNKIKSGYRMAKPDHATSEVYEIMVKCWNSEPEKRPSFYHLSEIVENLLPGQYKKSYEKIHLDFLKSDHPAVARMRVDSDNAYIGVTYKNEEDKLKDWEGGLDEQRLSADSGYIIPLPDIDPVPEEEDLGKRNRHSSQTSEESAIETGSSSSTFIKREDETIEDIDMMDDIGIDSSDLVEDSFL

For Cc1ccc(NC(=O)c2ccc(CN3CCN(C)CC3)cc2)cc1Nc1nccc(-c2cccnc2)n1 [imatinib], the “Sensitivity to imatinib by location of PDGFRA mutation” value is given as “more sensitive to imatinib than the D842V kinase domain mutation”.
